Laboratory results published in US20180303845A1, “USE OF TLR8 AGONISTS TO TREAT CANCER” (VentiRx Pharmaceuticals, Inc., priority 2015, published 2018).

What was measured:
EGFR^| UM-22B HNC cells = test: 51Cr release assay of cetuximab-mediated ADCC by motolimod-pre-treated PBMC or isolated NK; format: cell-based
Procedure: (§1) PBMC cytokine release was also measured using a multiplex cytokine assay. FcγR III-158 genotype was determined using a quantitative PCR-based assay kit. Significant differences in ADCC by FcγR Ma or TLR8 genotype were determined using a Kruskal-Wallis one-way analysis of variance, and a post hoc Mann-Whitney non-parametric t test was performed for differences between groups. For cytokine analysis, a Mann-Whitney non-parametric test was performed.

PBMC = PBMC cytokine release, multiplex cytokine assay; format: cell-based
Procedure: as §1

HNC = conditions: cited from earlier work
[1] = test system: recurrent or metastatic SCCHN; conditions: cited from earlier work

**Q.** What does the source list for CCCN(CCC)C(=O)C1=Cc2ccc(-c3ccc(C(=O)N4CCCC4)cc3)cc2N=C(N)C1 [motolimod, 2-amino-N,N-dipropyl-8-[4-(pyrrolidin-1-ylcarbonyl)phenyl]-3H-1-benzazepine-4-carboxamide]?
**A.** cetuximab-mediated ADCC by TLR8 stimulated PBMC from HNC patients (EGFR^| UM-22B HNC cells; PBMC from HNC patients, p=0.0262): more avid effectors; enhancement of ADCC lytic activity in NK, FcγR IIIc FF genotype (EGFR^| UM-22B HNC cells; motolimod 250 nM 18 hr pre-treatment, cetuximab 10 μg/mL, 4 hr, FF genotype): 2.6 fold; enhancement of ADCC lytic activity in NK, VF genotype (EGFR^| UM-22B HNC cells; motolimod 250 nM 18 hr pre-treatment, cetuximab 10 μg/mL, 4 hr, VF genotype): 1.7 fold; enhancement of ADCC lytic activity in NK, VV genotype (EGFR^| UM-22B HNC cells; motolimod 250 nM 18 hr pre-treatment, cetuximab 10 μg/mL, 4 hr, VV genotype): 1.8 fold; cetuximab-mediated ADCC against HNC cells (EGFR^| UM-22B HNC cells; summary statement): enhanced; IFN-γ secretion, treated versus untreated PBMC (PBMC; p<0.0001): significantly higher levels; TNF-α secretion, treated versus untreated PBMC (PBMC; p<0.0001): significantly higher levels; IL-12p40 secretion, treated versus untreated PBMC (PBMC; p=0.0002): significantly higher levels; IL-12p70 secretion, treated versus untreated PBMC (PBMC; p=0.03): significantly higher levels; cetuximab-mediated ADCC and DC IVS of CD8^+ T cells in HNC (HNC; in vitro): significantly enhances; DC maturation and cross-priming of CD8^+ cells (HNC; motolimod in combination with cetuximab): enhances; clinical activity (pharmacologic evidence) ([1]; in combination with cetuximab, escalating doses of motolimod): dose-dependent clinical activity; safety profile ([1]; motolimod days 1, 8, 15 in combination with weekly cetuximab, 28-day cycles): acceptable safety profile
